In PMC5444383 (Biochemistry, 2016) one finds Kd, Km and kcat data, which are given here for 3 molecules.

Like-named read-outs stand apart in the source and are kept apart here.

For data set [1], the target named is T1, ethylene-forming enzyme (EFE) (Pseudomonas savastanoi, UniProt P32021). Briefly: anaerobic UV-vis difference titration. The data set is classed as binding.
For another data set, the system named is O=C(O)CCCC(=O)C(=O)O. Put plainly: purified protein. The following applies: Fe(II) active-site Fe(II) (MLCT transition).
Data set [2] deals with T1, ethylene-forming enzyme (EFE). Put plainly: anaerobic UV-vis difference titration. It counts as binding. This is another data set of the same source.

T1 sequence (P32021 whole entry): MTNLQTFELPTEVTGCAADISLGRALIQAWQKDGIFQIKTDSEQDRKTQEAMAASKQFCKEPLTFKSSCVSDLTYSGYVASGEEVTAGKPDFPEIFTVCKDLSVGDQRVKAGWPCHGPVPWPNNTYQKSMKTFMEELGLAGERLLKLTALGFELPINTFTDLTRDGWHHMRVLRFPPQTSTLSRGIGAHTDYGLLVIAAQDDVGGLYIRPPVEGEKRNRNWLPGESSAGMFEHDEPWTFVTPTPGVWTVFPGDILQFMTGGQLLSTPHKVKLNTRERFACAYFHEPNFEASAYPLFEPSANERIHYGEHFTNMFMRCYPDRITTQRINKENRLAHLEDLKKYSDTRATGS

For orientation: Kd means a measure of binding affinity in units of concentration. Higher therefore signals lower affinity. In the case of `O=C(O)CCC(=O)C(=O)O` [2OG, 2-oxoglutarate], the Kd in data set [1] stood at 25 ± 7 µM.
What is called Km is the concentration of substrate that gives half-maximal velocity. The term kcat denotes the number of substrate molecules converted per active site and unit of time at saturation. In the case of “ethylene-forming enzyme (EFE) (Pseudomonas savastanoi pv. phaseolicola)”, in the data set on O=C(O)CCCC(=O)C(=O)O, the Km came to 31 ± 4 µM and the kcat is 0.00417 ± 0.000333 s⁻¹.
Regarding `N=C(N)NCCC[C@H](N)C(=O)O` [L-Arg, L-arginine], binding in data set [2] was characterised by a dissociation constant (Kd) of 34 ± 25 µM.
